The values below come from patent US20080242688A1, “Method 741” (ASTRAZENECA AB, priority 2007, published 2008).

Each structure is given as a SMILES string. Where only a bound is given, the exact number is not on record here.

Series [1] can be described thus: Pentylenetetrazole-induced seizure threshold. As to conditions: in vivo; rat, oral; read-out: NOAEL, proconvulsant activity. As for the experimental part:
AZD0328 was assessed for its ability to influence the threshold to clonic convulsions caused by an intravenous infusion of pentylenetetrazole (PTZ) in rats (Table 3).

For series [2], the target named is rat brain α7 receptors (Rattus norvegicus, UniProt Q05941). Kind of series: BTX binding, rat hippocampal membranes. As for the experimental part: AZD0328 is a reversible, high affinity ligand of human recombinant and rat brain α7 receptors. […]. Systemic administration of AZD0328 occupied rat brain α7 receptors and increased the number of α7 receptor binding sites. Very low doses of AZD0328 (0.00048-0.0016 mg/kg) improved spatial working memory performance in rhesus monkeys. The pharmacological profile of AZD0328 illustrates its potential utility to improve cognitive function by activating the α7 receptor.
. In Xenopus oocytes injected with human, recombinant α7 receptor mRNA, AZD0328 activates whole cell currents (Table 2). […] In acutely dissociated rat hippocampal interneurons, AZD0328 elicits rapidly activated, desensitizing whole-cell current (Table 1), consistent with the known properties of rat neuronal α7 receptors. […] AZD0328 modulates synaptic function, consistent with the well-known role of α7 receptors as heteroreceptor modulators of glutamatergic and GABAergic synaptic function.

The test system of series [3] is mice. The series can be described thus: Novel Object Recognition (NOR). The format is in vivo, mouse. As to conditions: 0.00178 mg/kg sc. From the text:
We have now discovered that much lower doses of AZD0328 that provide much lower plasma concentrations, can improve performance of cognitive tasks in mice, rats, and monkeys. AZD0328 at low doses increased novel object recognition in mice. In this procedure, mice were habituated to a chamber in which they were then allowed to “sample” two objects before being removed from the chamber. After a delay during which one of the objects was replaced with a novel object, the mice were returned to the chamber for testing. If the delay was brief, mice spent more time exploring the novel object than the familiar object, which is thought to indicate that the mice “recognize” […], a measure of episodic memory.
AZD0328 increased novel object recognition in mice (Table 2). In this procedure, mice were habituated to a chamber in which they were then allowed to “sample” two objects before being removed from the chamber. After a delay during which one of the objects was replaced with a novel object, the mice were returned to the chamber for testing. If the delay was brief, mice spent more time exploring the novel object than the familiar object, which is thought to indicate that the mice “recognize” that the novel object is novel.

Chain of rat brain α7 receptors (Q05941 23-502): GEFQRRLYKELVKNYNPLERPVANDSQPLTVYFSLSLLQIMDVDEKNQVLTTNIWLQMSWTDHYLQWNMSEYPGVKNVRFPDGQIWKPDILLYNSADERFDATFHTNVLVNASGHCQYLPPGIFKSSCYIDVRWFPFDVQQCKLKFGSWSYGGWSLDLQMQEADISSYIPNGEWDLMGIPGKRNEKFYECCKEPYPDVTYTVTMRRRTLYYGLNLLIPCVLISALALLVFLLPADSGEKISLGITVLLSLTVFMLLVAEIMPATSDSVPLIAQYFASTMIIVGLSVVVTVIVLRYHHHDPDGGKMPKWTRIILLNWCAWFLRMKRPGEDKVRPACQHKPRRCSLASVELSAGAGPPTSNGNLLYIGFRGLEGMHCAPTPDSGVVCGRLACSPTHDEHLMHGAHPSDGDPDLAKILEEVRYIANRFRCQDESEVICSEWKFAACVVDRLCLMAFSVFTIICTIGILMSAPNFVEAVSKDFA

`c1cnc2c(c1)C[C@@]1(CN3CCC1CC3)O2` [AZD0328, (R)-Spiro[1-azabicyclo[2.2.2]octane-3,2′(3′H)-furo[2,3-b]pyridine]]: the NOAEL in series [1] turned out to be 64.9 mg/kg. The same compound gave a Ki in series [2] of 4.7 nM. Besides, in series [3], the “time of administration prior to object sampling at which object recognition index was still significantly increased” value is at most 48 h.
